From US20230374025A1, “FGFR INHIBITOR COMPOUND AND USE THEREOF” (SHENZHEN KANGSU PHARMACEUTICAL TECHNOLOGY CO., LTD., priority 2021, published 2023) come the findings set out here.

Holding throughout (type): biochemical
In one assay the target is T1, FGFR1 V561M (Homo sapiens, UniProt P11362, V561M).
T1 construct: purchased Signalchem F04-13G
In words: Assay I: inhibitory activity against FGFR mutants (HTRF KinEASE-TK). The following applies: ATP 5 μM, substrate TK 1 μM. As to the method: (§1) Assay I: Determination of Inhibitory Activity Against FGFR Mutants
(§2) 1. Reagents and Equipment
(§3) 2.1 Preparation of 1× Kinase Reaction Buffer:
(§4) 1× Kinase reaction buffer was formulated with 1× volume of 5× kinase reaction buffer and 4× volume of water; 5 mM MgCl2; and 1 mM DTT.
(§5) 2.3 Screening of Compounds:
(§6) 1. Diluting a compound 4-fold in a dilution plate with DMSO, with a starting compound concentration of 2 mM.
(§7) 2. Diluting the compound 40-fold into 1× kinase reaction buffer and shaking it on a shaker for 20 minutes.
(§8) 5. Adding 1 μl of the compound diluted in buffer to each well, sealing the plate with a sealing membrane and centrifuging the plate at 1000 g for 30 seconds and leaving it at room temperature for 10 minutes.
(§9) 6. Formulating 2.5×TK-substrate-biotin and ATP mixture with 1× enzyme reaction buffer and adding 2 μl of K-substrate-biotin/ATP mixture to the reaction plate.
(§10) 7. Sealing the plate with a sealing membrane and centrifuging the plate at 1000 g for 30 seconds and allowing it to react at room temperature for 50 minutes.
(§11) 8. Formulating 4× Sa-XL 665 (250 nM) with HTRF assay buffer.
(§12) 9. Adding 5 μl Sa-XL 665 and 5 μl TK-Antibody-Cryptate to each well, centrifuging it at 1000 g for 30 seconds, and allowing it to react for 1 hour at room temperature.
(§13) 10. Reading fluorescence signals at 615 nm (Cryptate) and 665 nm (XL665) with Biotek.
(§14) 3.1 Calculation of the ratio for each well: the ratio was calculated as 665/615 nm.
(§15) 3.3 Calculation of IC50 and plotting of inhibition curves for the compounds.
(§16) The IC50 (half inhibition concentration) of a compound was obtained using the following non-linear fitting equation, wherein data analysis was performed using Graphpad 6.0 software.
(§17) Y=Bottom+(Top−Bottom)/(1+10^((Log IC50−X)*Hill Slope)) • X: log value of compound concentration; and Y: inhibition rate (% inh)
(§18) 3.4 Validation of Results
(§19) Data were exported from Envision and analyzed manually. The ratios were converted to inhibition rates and IC50 was calculated by Prism GraphPad 6.0 from the inhibition rates. IC50 was calculated again by the ratios to verify accuracy of the results.
(Time-resolved FRET reads energy transfer from a long-lived donor to a nearby acceptor.)

Another assay concerns the target T2, FGFR2 V564F (Homo sapiens, UniProt P21802, V564F).
T2 construct: purchased Signalchem F05-12FG
The description is as above. To be noted: ATP 10 μM, substrate TK 1 μM. As to the method:
as §1, §2, §3, §4, §5, §6, §7, §8, §9, §10, §11, §12, §13, §14, §15, §16, §17, §18, §19

The next assay addresses T3, FGFR3 V555M (Homo sapiens, UniProt P22607, V555M).
T3 construct: purchased Signalchem F06-12GG
The assay is described as above. To be noted: ATP 20 μM, substrate TK 1 μM. As for the experimental part:
as §1, §2, §3, §4, §5, §6, §7, §8, §9, §10, §11, §12, §13, §14, §15, §16, §17, §18, §19

A further assay has as its target T4, VEGFR2 (Homo sapiens, UniProt P35968).
T4 construct: purchased Carna 08-191
In words: Assay I: VEGFR2 kinase inhibition (HTRF KinEASE-TK). To be noted: ATP 5 μM, substrate TK 1 μM. As to the method: as §1, §2, §3, §4, §5, §6, §7
3. Formulating 2×FGFR1 V561M/FGFR2 V564F/FGFR3 K650E/VEGFR2 with 1× of enzyme reaction buffer.
4. Adding 2 μl FGFR1 V561M/FGFR2 V564F/FGFR3 K650E/VEGFR2 kinase (formulated in step 3) to each well of the reaction plate.
as §8, §9, §10, §11, §12, §13, §14, §15, §16, §17, §18, §19
Positive control IC50 was within 3 times of the average value

T2 sequence (P21802 22-821 V564F): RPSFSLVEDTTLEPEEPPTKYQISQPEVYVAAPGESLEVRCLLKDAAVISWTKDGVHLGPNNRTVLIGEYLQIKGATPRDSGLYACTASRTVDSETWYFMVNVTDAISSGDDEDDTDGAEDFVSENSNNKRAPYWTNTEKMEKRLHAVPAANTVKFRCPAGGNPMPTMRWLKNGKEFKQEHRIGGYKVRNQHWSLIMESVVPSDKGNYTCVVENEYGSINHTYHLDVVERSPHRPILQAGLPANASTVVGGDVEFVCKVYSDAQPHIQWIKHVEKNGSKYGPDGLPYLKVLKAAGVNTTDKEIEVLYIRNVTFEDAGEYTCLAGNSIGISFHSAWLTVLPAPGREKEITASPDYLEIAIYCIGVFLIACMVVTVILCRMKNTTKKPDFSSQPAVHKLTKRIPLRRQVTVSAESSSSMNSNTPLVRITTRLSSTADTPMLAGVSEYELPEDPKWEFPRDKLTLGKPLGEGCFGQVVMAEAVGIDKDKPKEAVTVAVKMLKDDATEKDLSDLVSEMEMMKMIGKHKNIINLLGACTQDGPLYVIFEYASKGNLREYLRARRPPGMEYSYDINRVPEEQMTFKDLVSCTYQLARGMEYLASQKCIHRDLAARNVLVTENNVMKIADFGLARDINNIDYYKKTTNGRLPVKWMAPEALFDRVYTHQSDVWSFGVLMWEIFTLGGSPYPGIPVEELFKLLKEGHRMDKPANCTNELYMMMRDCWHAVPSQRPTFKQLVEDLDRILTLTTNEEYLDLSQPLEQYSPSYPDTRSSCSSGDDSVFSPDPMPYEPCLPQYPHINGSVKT
T3 sequence (P22607 397-806 V555M limits assumed): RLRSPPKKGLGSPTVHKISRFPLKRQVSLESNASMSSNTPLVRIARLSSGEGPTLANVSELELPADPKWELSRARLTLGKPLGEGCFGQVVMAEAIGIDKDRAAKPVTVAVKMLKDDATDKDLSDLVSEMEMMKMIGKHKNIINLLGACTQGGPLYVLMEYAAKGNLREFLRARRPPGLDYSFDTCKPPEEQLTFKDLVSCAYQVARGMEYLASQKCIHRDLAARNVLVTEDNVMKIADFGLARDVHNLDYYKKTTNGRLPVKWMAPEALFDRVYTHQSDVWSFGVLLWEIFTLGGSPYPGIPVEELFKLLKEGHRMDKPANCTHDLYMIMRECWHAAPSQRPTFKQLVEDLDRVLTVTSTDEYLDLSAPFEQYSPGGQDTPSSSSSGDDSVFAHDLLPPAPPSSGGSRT
T4 sequence (P35968 20-1356): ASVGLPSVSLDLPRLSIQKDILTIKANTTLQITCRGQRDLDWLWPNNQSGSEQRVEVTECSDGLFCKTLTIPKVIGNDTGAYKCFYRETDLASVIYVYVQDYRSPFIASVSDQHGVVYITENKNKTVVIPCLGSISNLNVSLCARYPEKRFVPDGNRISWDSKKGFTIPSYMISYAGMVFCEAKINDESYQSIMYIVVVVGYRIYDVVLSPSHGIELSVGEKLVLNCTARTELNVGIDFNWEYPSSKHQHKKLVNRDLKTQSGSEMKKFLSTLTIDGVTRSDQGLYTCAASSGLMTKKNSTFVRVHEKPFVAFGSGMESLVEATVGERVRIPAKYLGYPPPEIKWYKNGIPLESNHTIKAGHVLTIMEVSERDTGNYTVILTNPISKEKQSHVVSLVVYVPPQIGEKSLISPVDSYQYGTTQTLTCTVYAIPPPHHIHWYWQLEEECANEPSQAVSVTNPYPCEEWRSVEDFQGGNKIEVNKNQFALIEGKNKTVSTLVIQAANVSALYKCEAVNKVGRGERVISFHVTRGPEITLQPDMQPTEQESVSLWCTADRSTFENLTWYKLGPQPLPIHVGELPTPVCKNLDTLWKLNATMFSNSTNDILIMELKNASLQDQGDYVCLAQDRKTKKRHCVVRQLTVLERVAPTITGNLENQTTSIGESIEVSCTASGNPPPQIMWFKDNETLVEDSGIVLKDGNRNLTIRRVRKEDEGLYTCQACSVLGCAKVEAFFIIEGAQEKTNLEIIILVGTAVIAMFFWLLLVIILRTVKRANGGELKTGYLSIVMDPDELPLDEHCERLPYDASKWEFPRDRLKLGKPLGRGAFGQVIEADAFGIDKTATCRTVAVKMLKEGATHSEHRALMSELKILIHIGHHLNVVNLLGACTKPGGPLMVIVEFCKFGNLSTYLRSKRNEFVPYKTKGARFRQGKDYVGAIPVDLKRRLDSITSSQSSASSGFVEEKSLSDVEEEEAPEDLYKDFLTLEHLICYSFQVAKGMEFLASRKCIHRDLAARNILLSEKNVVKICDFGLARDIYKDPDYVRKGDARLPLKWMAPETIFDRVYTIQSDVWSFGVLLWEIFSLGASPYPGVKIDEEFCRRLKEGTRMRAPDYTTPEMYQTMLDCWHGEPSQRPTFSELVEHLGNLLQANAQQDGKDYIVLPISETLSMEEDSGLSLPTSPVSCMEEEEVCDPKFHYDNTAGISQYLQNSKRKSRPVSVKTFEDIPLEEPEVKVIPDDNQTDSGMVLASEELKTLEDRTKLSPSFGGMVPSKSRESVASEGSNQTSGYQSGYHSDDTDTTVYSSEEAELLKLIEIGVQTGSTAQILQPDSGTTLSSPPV
T1 sequence (P11362 22-822 V561M): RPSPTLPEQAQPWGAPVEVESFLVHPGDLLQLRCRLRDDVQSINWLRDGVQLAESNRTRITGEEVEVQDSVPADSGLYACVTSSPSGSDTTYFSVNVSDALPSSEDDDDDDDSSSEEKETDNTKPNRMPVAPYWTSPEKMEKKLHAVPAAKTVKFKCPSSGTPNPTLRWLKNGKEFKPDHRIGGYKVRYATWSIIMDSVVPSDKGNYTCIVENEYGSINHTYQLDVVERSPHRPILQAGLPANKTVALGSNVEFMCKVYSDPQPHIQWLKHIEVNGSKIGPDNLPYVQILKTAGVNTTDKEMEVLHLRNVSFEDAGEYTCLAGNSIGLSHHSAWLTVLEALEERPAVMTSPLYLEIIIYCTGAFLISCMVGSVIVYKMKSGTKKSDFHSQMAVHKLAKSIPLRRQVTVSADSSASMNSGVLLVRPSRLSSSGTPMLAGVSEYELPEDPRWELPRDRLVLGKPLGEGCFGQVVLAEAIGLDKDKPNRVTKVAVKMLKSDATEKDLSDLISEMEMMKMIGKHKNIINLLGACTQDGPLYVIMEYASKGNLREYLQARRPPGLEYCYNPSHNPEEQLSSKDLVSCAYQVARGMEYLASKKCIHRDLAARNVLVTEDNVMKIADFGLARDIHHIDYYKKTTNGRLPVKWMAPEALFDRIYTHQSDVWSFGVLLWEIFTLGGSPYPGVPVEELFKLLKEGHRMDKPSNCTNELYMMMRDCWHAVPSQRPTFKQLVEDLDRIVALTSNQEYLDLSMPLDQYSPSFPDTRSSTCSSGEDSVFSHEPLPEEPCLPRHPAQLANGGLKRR

In the case of `CC(Oc1ccc2[nH]nc(-c3nc4c([nH]3)CN(CC3CCN(C)CC3)C4)c2c1)c1c(Cl)cncc1Cl` (stereo not shown) [Compound 2, 5-(1-(3,5-dichloropyridin-4-yl)ethoxy)-3-(5-((1-methylpiperidin-4-yl)methyl)-1,4,5,6-tetrahydropyrrolo[3,4-d]imidazol-2-yl)-1H-indazole], the IC50 (usually the point on the concentration scale where inhibition reaches its midpoint) against FGFR1 V561M was determined as 0.21 nM; at FGFR2 V564F, 0.1 nM; against FGFR3 V555M, 0.05 nM; against VEGFR2, 2.6 nM.
The like results for `CC(Oc1ccc2[nH]nc(-c3nc4c([nH]3)CN(C3CCN(C)CC3)C4)c2c1)c1c(Cl)cncc1Cl` (stereo not shown) [Compound 3, 5-(1-(3,5-dichloropyridin-4-yl)ethoxy)-3-(5-(1-methylpiperidin-4-yl)-1,4,5,6-tetrahydropyrrolo[3,4-d]imidazol-2-yl)-1H-indazole] were, in that order, 0.65 nM, 0.25 nM, 0.67 nM and 5.4 nM.
For `CC(Oc1ccc2[nH]nc(-c3nc4c([nH]3)CN(C3CCN(C)CC3)CC4)c2c1)c1c(Cl)cncc1Cl` (stereo not shown) [Compound 4, 2-(5-(1-(3,5-dichloropyridin-4-yl)ethoxy)-1H-indazol-3-yl)-5-(1-methylpiperidin-4-yl)-4,5,6,7-tetrahydro-3H-imidazo[4,5-c]pyridine], the IC50 stood at 0.31 nM at FGFR1 V561M, 0.19 nM against FGFR2 V564F, 0.16 nM on FGFR3 V555M and 17.6 nM at VEGFR2.
For `CC(Oc1ccc2[nH]nc(-c3nc4c([nH]3)CN(C(=O)C3CCN(C)CC3)C4)c2c1)c1c(Cl)cncc1Cl` (stereo not shown) [Compound 6, (2-(5-(1-(3,5-dichloropyridin-4-yl)ethoxy)-1H-indazol-3-yl)-4,6-dihydropyrrolo[3,4-d]imidazol-5(1H)-yl)(1-methylpiperidin-4-yl)ketone], the IC50 turned out to be 0.38 nM against FGFR1 V561M, 0.11 nM on FGFR2 V564F, 0.12 nM on FGFR3 V555M and 3.1 nM at VEGFR2.
The matching figures for `CC(Oc1ccc2[nH]nc(-c3nc4c([nH]3)CN(S(=O)(=O)c3cccnc3)C4)c2c1)c1c(Cl)cncc1Cl` (stereo not shown) [Compound 7, 5-(1-(3,5-dichloropyridin-4-yl)ethoxy)-3-(5-(pyridin-3-ylsulfonyl)-1,4,5,6-tetrahydropyrrolo[3,4-d]imidazol-2-yl)-1H-indazole]: 1.6 nM, 3.1 nM, 4 nM and 42.9 nM.
Take `CC(Oc1ccc2[nH]nc(-c3nc4c([nH]3)CN(C(=O)[C@@H]3CCNC3)C4)c2c1)c1c(Cl)cncc1Cl` (stereo partly drawn) [Compound 9, (2-(5-(1-(3,5-dichloropyridin-4-yl)ethoxy)-1H-indazol-3-yl)-4,6-dihydropyrrolo[3,4-d]imidazol-5(1H)-yl)((R)-pyrrolidin-3-yl)ketone]: the IC50 came to 0.41 nM against FGFR1 V561M, 0.27 nM on FGFR2 V564F, 0.16 nM on FGFR3 V555M and 5.6 nM at VEGFR2.
The matching figures for `CC(Oc1ccc2[nH]nc(-c3nc4c([nH]3)CN(CCN3CCOCC3)C4)c2c1)c1c(Cl)cncc1Cl` (stereo not shown) [Compound 12]: 1.2 nM, 0.29 nM, 0.21 nM and 14.2 nM.
The matching figures for `CC(Oc1ccc2[nH]nc(-c3nc4c([nH]3)CN(C(=O)CN3CCOCC3)C4)c2c1)c1c(Cl)cncc1Cl` (stereo not shown) [Compound 13, 1-(2-(5-(1-(3,5-dichloropyridin-4-yl)ethoxy)-1H-indazol-3-yl)-4,6-dihydropyrrolo[3,4-d]imidazol-5(1H)-yl)-2-morpholinoethan-1-one]: 0.46 nM, 0.31 nM, 0.22 nM and 5.5 nM.
In the case of `CC(Oc1ccc2[nH]nc(-c3nc4c([nH]3)CN(C(=O)CN(C)C)C4)c2c1)c1c(Cl)cncc1Cl` (stereo not shown) [Compound 14, 1-(2-(5-(1-(3,5-dichloropyridin-4-yl)ethoxy)-1H-indazol-3-yl)-4,6-dihydropyrrolo[3,4-d]imidazol-5(1H)-yl)-2-(dimethylamino)ethan-1-one], the IC50 stood at 0.11 nM on FGFR1 V561M, 0.09 nM on FGFR2 V564F, 0.03 nM on FGFR3 V555M and 6.1 nM on VEGFR2.
The like results for `CC(Oc1ccc2[nH]nc(-c3nc4c([nH]3)CN(CCO)C4)c2c1)c1c(Cl)cncc1Cl` (stereo not shown) [Compound 15, 2-(2-(5-(1-(3,5-dichloropyridin-4-yl)ethoxy)-1H-indazol-3-yl)-4,6-dihydropyrrolo[3,4-d]imidazol-5(1H)-yl)ethan-1-ol] were, in that order, 3.6 nM, 2 nM, 2 nM and 67 nM.
Regarding `CC(Oc1ccc2[nH]nc(-c3nc4c([nH]3)CN(S(C)(=O)=O)C4)c2c1)c1c(Cl)cncc1Cl` (stereo not shown) [Compound 16, 5-(1-(3,5-dichloropyridin-4-yl)ethoxy)-3-(5-(methylsulfonyl)-1,4,5,6-tetrahydropyrrolo[3,4-d]imidazol-2-yl)-1H-indazole], the IC50 came out at 0.39 nM against FGFR1 V561M, 0.22 nM on FGFR2 V564F, 0.35 nM against FGFR3 V555M and 22.1 nM on VEGFR2.
In the case of `COC(=O)N1Cc2nc(-c3n[nH]c4ccc(OC(C)c5c(Cl)cncc5Cl)cc34)[nH]c2C1` (stereo not shown) [Compound 17, Methyl 2-(5-(1-(3,5-dichloropyridin-4-yl)ethoxy)-1H-indazol-3-yl)-4,6-dihydropyrrolo[3,4-d]imidazole-5(1H)-carboxylate], the IC50 against FGFR1 V561M was determined as 1.2 nM; on FGFR2 V564F, 0.74 nM; against FGFR3 V555M, 0.21 nM; on VEGFR2, 49 nM.
In the case of `CC(Oc1ccc2[nH]nc(-c3nc4c([nH]3)CN(S(=O)(=O)c3cnn(C)c3)C4)c2c1)c1c(Cl)cncc1Cl` (stereo not shown) [Compound 18, 5-(1-(3,5-dichloropyridin-4-yl)ethoxy)-3-(5-((1-methyl-1H-pyrazol-4-yl)sulfonyl)-1,4,5,6-tetrahydropyrrolo[3,4-d]imidazol-2-yl)-1H-indazole], the results for the half-maximal inhibitory concentration (IC50) against FGFR1 V561M, on FGFR2 V564F and on VEGFR2 were 2.2 nM, 1.2 nM and 19.6 nM, respectively.
The like results for `CC(Oc1ccc2[nH]nc(-c3nc4c([nH]3)CN(S(=O)(=O)c3ccn(C)n3)C4)c2c1)c1c(Cl)cncc1Cl` (stereo not shown) [Compound 20, 5-(1-(3,5-dichloropyridin-4-yl)ethoxy)-3-(5-((1-methyl-1H-pyrazol-3-yl)sulfonyl)-1,4,5,6-tetrahydropyrrolo[3,4-d]imidazol-2-yl)-1H-indazole] were, in that order, 1.8 nM, 1.7 nM and 13.3 nM.
As for `C[C@@H](Oc1ccc2[nH]nc(-c3nc4c([nH]3)CN(C3CCN(S(C)(=O)=O)C3)C4)c2c1)c1c(Cl)cncc1Cl` (stereo partly drawn) [Compound 39, 5-((R)-1-(3,5-Dichloropyridin-4-yl)ethoxy)-3-(5-(1-(methylsulfonyl)pyrrolidin-3-yl)-1,4,5,6-tetrahydropyrrolo[3,4-d]imidazol-2-yl)-1H-indazole], the IC50 against FGFR2 V564F is 1.3 nM; at FGFR3 V555M, 1.4 nM; at VEGFR2 it was 60.5 nM.
The like results for `C[C@@H](Oc1ccc2[nH]nc(-c3nc4c([nH]3)CN(C(=O)CN3CCC(F)C3)C4)c2c1)c1c(Cl)cncc1Cl` (stereo partly drawn) [Compound 48, 1-(2-(5-((R)-1-(3,5-Dichloropyridin-4-yl)ethoxy)-1H-indazol-3-yl)-4,6-dihydropyrrolo[3,4-d]imidazol-5(1H)-yl)-2-(3-fluoropyrrolidin-1-yl)ethan-1-one] were, in that order, 0.084 nM, 0.33 nM and 11.1 nM.
With `C[C@@H](Oc1ccc2[nH]nc(-c3nc4c([nH]3)CN(C(=O)CN3CCC(C#N)C3)C4)c2c1)c1c(Cl)cncc1Cl` (stereo partly drawn) [Compound 49, 1-(2-(2-(5-((R)-1-(3,5-dichloropyridin-4-yl)ethoxy)-1H-indazol-3-yl)-4,6-dihydropyrrolo[3,4-d]imidazol-5(1H)-yl)-2-oxoethyl)pyrrolidine-3-carbonitrile], the half-maximal inhibitory concentration (IC50) at FGFR2 V564F stood at 0.017 nM; against FGFR3 V555M, 0.19 nM; on VEGFR2, 6.7 nM.
On VEGFR2, `CCN1CCN(c2ccc(Nc3cc(N(C)C(=O)Nc4c(Cl)c(OC)cc(OC)c4Cl)ncn3)cc2)CC1` [Infigratinib, reference compound] showed an IC50 of 99 nM.
